Consider 20 molecules from patent publication US20160090557A1, “SUBSTRATES COMPRISING MALODOR REDUCTION COMPOSITIONS” (The Procter & Gamble Company, priority 2014, published 2016).

Assay [1] is described as follows: Blocker Index (BI), expert graders, isovaleric acid malodorous swatch. Further details: key: BI odor strength 0 (lowest, clean swatch) to 3 (highest). An excerpt:
(§1) Blocker materials suitable for use in consumer products of the present invention are chosen for their ability to decrease malodor, while not interfering with perception of a fragrance. Material selection is done by assigning two indices to a test sample material from two reference scales in order to rank odor strengths. The two reference scales are the Fragrance Fidelity Index (FFI) scale and the Blocker Index (BI) scale. The FFI ranks the ability of the test sample material to impart a perceivable odor which could cause interference when combined with another fragrance and the BI ranks the ability of the test sample material to reduce malodor perception. The two methods for assigning the indices to a test sample on the FFI and the BI reference scales are given below.
The first step in the method for assigning a BI to a test sample material on the BI reference scale is to create the BI reference swatches. […] Fabric swatches for this test are white knit polycotton (4 inch×4 inch) swatches from EMC ordered as PC 50/50. The supplier is instructed to strip the swatches first, stripping involves washing twice with a fragrance-free detergent and rinsing three times.
The BI scale contains one clean swatch with no malodor applied. […] These solutions are pipetted to the middle of the swatches. […] After drying for 30 minutes in a vented hood, the swatches are wrapped in aluminum foil to prevent odor contamination to the treated swatch. A clean untreated swatch is also included as the lowest anchor point of reference for malodor strength on the BI scale. The BI reference scale swatches should be used within 0.5 to 12 hours and discarded after 12 hours. The swatches are used as scale anchor points when graders evaluate a test sample(s) and are assigned a Blocker Index (BI) as show in Table 12.
The perfumer/expert grader is asked to rank order swatches according to a scale between 0 and 3.
The reference swatches represent the 0, 1, 2, and 3 BIs on the BI reference scale, Table 12. The expert grader should familiarizes him/herself with the strength of the odor on the BI reference swatches by sniffing each one starting at 0 (the lowest odor strength) and ending at 3 (the highest odor strength). This should be done prior to evaluating the swatch treated with the test material.
To evaluate the BI, the test material is applied to a malodorous swatch to determine how well the test material blocks the malodor. […] After drying the malodorous swatch a known concentration of test material solution, between 1 ppm and 100 ppm is pipetted onto the malodorous swatch. […] It is sometimes necessary to evaluate several levels of the test material between about 1 and about 100 ppm to determine the BI.
At least two perfumers/expert graders are used to assign the BI to the test sample. […] The test sample swatch is assigned a BI at or between numbers on the BI in table.

Assay [2] is described as follows: Fragrance Fidelity Index (FFI), expert graders, treated fabric swatch against ethyl vanillin reference scale.
From the text: as §1
The first step in the method for assigning an FFI to the test samples on the FFI reference scale is to create the FFI reference swatches. […] Fabric swatches for this test are white knit polycotton (4 inch×4 inch) swatches from EMC ordered as PC 50/50. The supplier is instructed to strip the swatches first, stripping involves washing twice with a fragrance-free detergent and rinsing three times.
Pipette 13 μL of each of the three solutions into the middle of a clean swatch resulting in about a 1 cm diameter of the solution in the middle of the swatch. This will create a sensory scale of three swatches with three different odor levels based on the concentration of the solution pipetted onto the swatch. After drying for 30 minutes in a vented hood, the swatches are wrapped in aluminum foil to prevent odor contamination to the treated swatch. A clean untreated swatch is also included as the lowest anchor point of reference for odor strength on the FFI scale. The FFI reference scale swatches should be used within 0.5 to 12 hours and discarded after 12 hours. The swatches are used as scale anchor points when graders evaluate a test sample(s) and are assigned a Fragrance Fidelity Index (FFI) as show in Table 7.
The perfumer/expert panel is asked to rank order swatches according to a scale between 0 and 3.
The reference swatches represent the 0, 1, 2, and 3 FFIs on the FFI reference scale, Table 9. The expert grader should familiarize them self with the strength of the odor on the FFI reference swatches by sniffing each one starting at 0 (the lowest odor strength) and ending at 3 (the highest odor strength). This should be done prior to evaluating the test sample material treated swatch.
A clean swatch is treated with 13 μL of a known concentration of a test sample material resulting in an about 1 cm of the solution on the clean swatch. Just like the reference swatches, the test sample material swatch is dried in a vented hood for 30 minutes and then wrapped in aluminum foil to prevent contamination. […]

[3] abbreviates: test material Conc 10 ppm on isovaleric acid malodorous swatch.
Where [4] appears, read: test material Conc 50 ppm on isovaleric acid malodorous swatch.

On to `O=C1CCC2CCCCC2O1` (stereo not drawn) [3,4,4a,5,6,7,8,8a-octahydrochromen-2-one], for which the BI in assay [1] (setting [3]) and in assay [1] (setting [4]) was 2.0 each time.
For `CC1CCC2(C(C)C)CC(C)OC2C1` (stereo not drawn) [4,8-dimethyl-1-(methylethyl)-7-oxybiciclo [4.3.0]nonane], the BI in assay [1] (Conc 10 ppm) is on record as 2.0; in assay [1] (Conc 50 ppm), 2.2. Moreover, in assay [2] (Conc 50 ppm), the FFI is 0.3.
Regarding `CC(C)(C)C1CCCCC1` [4-tert-butyl cyclohexane], the BI in assay [1] (setting [3]) and in assay [1] (setting [4]) was 2.0 throughout.
As for `CCC(=O)OC1CC2C3C=CCC3C1C2(C)C` (stereo not drawn) [8,8-dimethyl-3a,4,5,6,7,7a-hexahydro-1H-4,7-methanoinden-6-yl propionate], the BI in assay [1] (Conc 10 ppm) worked out at 1.5; in assay [1] (Conc 50 ppm), 2.2. Further, the FFI in assay [2] (Conc 10 ppm) and in assay [2] (Conc 50 ppm) was 0 in each case.
Turning to `CCCCCCCCCCCCCCCC(=O)OC` [Material 109], the BI in assay [1] (setting [3]) worked out at 2.0.
On to `CCCCCCCCCCCCO` [Material 174], for which the BI in assay [1] (setting [4]) is given as 2.3.
On to `CC(=O)OCCCCCCC(C)C` [Material 204], for which the BI in assay [1] (setting [3]) amounted to 2.0; in assay [1] (setting [4]) it was 2.7.
Consider `CC1(C)CCc2ccc(CCC=O)cc21` [Material 261, 3-(3,3-dimethyl-2,3-dihydro-1H-inden-5-yl)propanal], for which the BI in assay [1] (Conc 10 ppm) amounted to 1.5; in assay [1] (Conc 50 ppm), 2.7. The molecule also came in with an FFI in assay [2] (Conc 50 ppm) of 0.5.
Take `CC1(C)CCc2ccc(CCC=O)cc21` [Material 261]: the BI worked out at 1.8 in assay [1] (setting [3]) and 1.3 in assay [1] (setting [4]).
With `CC(=O)OC1CC2CC1C1CC=CC21` (stereo not drawn) [Material 281], the BI in assay [1] (setting [3]) and in assay [1] (setting [4]) was 2.0 throughout.
For the molecule `CCCCCCCCCCCC(=O)OCC` [Material 391], in assay [1] (setting [4]), the BI is listed as 2.2.
Still for that read-out and setting: in the case of `C=CC(C)=CCC=C(C)C` [Material 524] it was 2.8.
Turning to `CCC(O)COC1CCCCC1C(C)(C)C` (stereo not drawn) [Material 677], the BI turned out to be 2.3 in assay [1] (setting [3]) and 2.0 in assay [1] (setting [4]).
Taken in the same sequence, the figures for `CC(CCO)CCc1ccccc1` (stereo not drawn) [Material 962] were 2.3 and 1.7.
For `CCOC(=O)OC1C(C)CCC(C)C1C` (stereo not drawn) [Material 1005], the BI in assay [1] (setting [4]) was found to be 2.6.
As to `COC(=O)OC1CC/C=C\CCC1` (stereo not drawn) [Material 1139], the BI in assay [1] (setting [3]) was 2.0; in assay [1] (setting [4]), 2.7.
For `C=C1CCC2OC2(C)CCC2C1CC2(C)C` (stereo not drawn) [Material 1148], the BI in assay [1] (setting [4]) is recorded as 2.3.
As for `CC1(C)C2CCC3(C2)C1C(=O)CCC3(C)C` (stereo not drawn) [Material 1149], the BI in assay [1] (setting [3]) turned out to be 1.5; in assay [1] (setting [4]) it was 2.3.
In the case of `CCCCCCCCCCCO` [Undecanol], the BI in assay [1] (setting [4]) is reported as 2.3.
Take `CC(C)CC(=O)O` [isovaleric acid, reference compound]: the “BI reference swatch grade, Ave” value in assay [1] (2 μL 0.08% isovaleric acid, graders 1-5 (Table 10)) came to 1.0. Also, the entries for the “BI reference swatch grade, single expert grader” value in assay [1] (stripped swatch with 2 μL 0.08% isovaleric acid), in assay [1] (stripped swatch with 5 μL 0.08% isovaleric acid) and in assay [1] (stripped swatch with 20 μL 0.08% isovaleric acid) were 1.0, 2.5 and 2.5, respectively.
